We go through 79 compounds from the METLIN SMRT retention time set (Domingo-Almenara et al. 2019).

A short description of the data set: gradient 5% acetonitrile 3 min, to 50% in 2 min, to 85% in 15 min, held 3 min, 100 µL/min. The note with it: column: Zorbax Extend-C18 2.1 x 50 mm; eluents: water / acetonitrile, 0.1% formic acid. In a few lines:
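Retention time was recorded from adduct peaks, which were picked computationally and each inspected manually. Pure standards ran in mixtures of ~100 molecules on HPLC coupled to a quadrupole time-of-flight mass spectrometer, in positive and negative ionization mode, through a Zorbax Extend-C18 column (2.1 × 50 mm, 1.8 μm) at 100 μL/min. Eluents were water and acetonitrile, each with 0.1% formic acid.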
Take `CCCN1C(=O)Cc2ccccc2C1C(=O)NCCOC` (centres undefined): the RP-LC retention time came out at 641 s. In turn, `CCCCCC#CC[C@@H](O)/C=C/C=C/C=C\[C@@H](O)CCCC(=O)O` gave an RP-LC retention time of 991 s.

`CCn1cnc(S(=O)(=O)N2CCC(C(=O)Nc3cccc(Cl)c3)CC2)c1`: the RP-LC retention time was found to be 695 s. As for `CCc1noc(NC(C)=O)c1-c1ccc(OC)c(S(=O)(=O)Nc2ccc(C(C)C)cc2)c1`, the RP-LC retention time worked out at 891 s. As for `O=C(Nc1cccc(F)c1)C1CCCN(c2nc3ccccc3nc2C(F)(F)F)C1` (centres undefined), the RP-LC retention time was determined as 1210 s.

Compound `Cc1ccccc1CNC(=O)C1(C)CCN(S(=O)(=O)c2cccc(Cl)c2C)CC1` showed an RP-LC retention time of 1090 s. Consider `CN(C(=O)CN(Cc1ccc(Cl)cc1)S(=O)(=O)c1cccnc1)c1ccccc1`, for which the RP-LC retention time was found to be 917 s.

`CCn1cc(-c2nc(C)c(C(=O)NCc3ccc(C)cc3)s2)c2cccnc21` had an RP-LC retention time of 1000 s. On to `COCCNC(=O)N1c2ccccc2NC2=C(C(=O)CC(C)(C)C2)C1c1ccccc1OC` (centres undefined), for which the RP-LC retention time turned out to be 725 s. Regarding `Cc1ccc(NC(=O)N2C[C@H](c3nc(-c4ccncc4)no3)[C@@H](C)C2)cc1C`, the RP-LC retention time amounted to 858 s. `COc1ccc(C2(C(=O)N3CCC(Cc4nc(-c5ccccc5)no4)CC3)CC2)cc1` showed an RP-LC retention time of 1050 s. `CC(=O)c1cccc(NC(=O)Cn2cnc3nc4c(cc3c2=O)CCCC4)c1` displayed an RP-LC retention time of 674 s. Regarding `CCOC(=O)c1c(S(=O)(=O)N2CCC(C(=O)NCCC3=CCCCC3)CC2)c(C)n(C)c1C`, the RP-LC retention time stood at 896 s. The compound `O=C(O)c1cc(N2CCN(CC(=O)N3CCCCCC3)CC2)ccc1NC(=O)C1CCC1` returned an RP-LC retention time of 636 s. The compound `Cc1oc(-c2[nH]ncc2C(=O)N(C)C)cc1S(=O)(=O)Nc1ccc(F)cc1` displayed an RP-LC retention time of 670 s.

With `Cc1ccc(N2CC(c3noc(-c4ccoc4)n3)CC2=O)cc1` (centres undefined), the RP-LC retention time turned out to be 868 s.

`O=C(NC1CCN(C(=O)c2cc(-c3cccs3)[nH]n2)CC1)c1cccs1` came in with an RP-LC retention time of 695 s.

In turn, `CN1C2CCC1CC(OC(=O)c1c[nH]c3ccccc13)C2` (centres undefined) had an RP-LC retention time of 644 s. `O=C(Nc1cc(Cl)ccc1Cl)C1CN(C(=O)c2ccc(F)c(F)c2)C1`: the RP-LC retention time came out at 862 s. Compound `COc1ccc(NC(=O)Cn2nc(N3CCCC(C)C3)c3ccccc3c2=O)cc1OC` (centres undefined) showed an RP-LC retention time of 997 s. With `O=c1c2c(CO)c(-c3ccccc3)nn2ccn1Cc1cc(F)ccc1F`, the RP-LC retention time worked out at 924 s. The compound `O=c1n(Cc2ccc(F)cc2)nc2ccc(S(=O)(=O)N3CCCCC3)cn12` returned an RP-LC retention time of 923 s. For `c1csc(CN2CCC(c3nc(-c4cnccn4)n[nH]3)CC2)c1`, the RP-LC retention time was found to be 555 s. In the case of `COc1ccccc1NC(=O)N1CCC(CNS(=O)(=O)Cc2cccc(F)c2)CC1`, the RP-LC retention time was determined as 787 s.

On to `COCCNC(=O)NCCn1c(-c2ccc(C)cc2)nc2cccnc21`, for which the RP-LC retention time is 588 s.

`CCC(C)NC(=O)c1ccc2ncnc(N3CCCCC3)c2c1` (centres undefined) returned an RP-LC retention time of 618 s. With `CC(C)c1cc(C(=O)Nc2ccc(C#N)cc2)nc2ccnn12`, the RP-LC retention time came out at 1030 s. In the case of `O=C(Cn1nc2c3cc(-c4ccc(F)cc4)nn3ccn2c1=O)N1CCCC1` it was 758 s.

For the compound `O=C1COc2cc(S(=O)(=O)N3CCCC3C(=O)N3CCc4ccccc43)c(Cl)cc2N1` (centres undefined), the RP-LC retention time came to 795 s. Turning to `CCCCN(C)Cc1nc(-c2ccc(N3CCOCC3)nc2)no1`, the RP-LC retention time stood at 594 s. For the compound `CCOc1nc2ccccc2nc1N1CCCC(C(=O)Nc2ccc(Br)cc2F)C1` (centres undefined), the RP-LC retention time was 1390 s. With `CCOc1ccc(Nc2c(C(=O)N3CCCCC3CC)cnc3nc(C)ccc23)cc1` (centres undefined), the RP-LC retention time is 683 s. For the compound `O=S(=O)(Nc1ccc2c(c1)OCO2)c1ccc2nncn2c1`, the RP-LC retention time stood at 648 s. As to `CC1CCCN(CC2CCN(S(=O)(=O)Cc3cc(F)cc(F)c3)CC2)C1` (centres undefined), the RP-LC retention time is 666 s. As to `Cc1nc(C2(C)CCN(S(=O)(=O)c3ccc(Cl)cc3C)CC2)no1`, the RP-LC retention time was found to be 1040 s.

As for `O=C(Cn1cnc2nc3c(cc2c1=O)CCCC3)N1CCN(C(=O)c2ccco2)CC1`, the RP-LC retention time was 622 s. The compound `Cc1ccc2c(c1)N(CCCC(=O)N1CCN(Cc3cn(C)c4ccccc34)CC1)C(=O)CO2` yielded an RP-LC retention time of 706 s. As to `O=C(NCCCn1c(-c2ccncc2)nc2cccnc21)Nc1ccc(Br)cc1F`, the RP-LC retention time amounted to 718 s. Take `N#Cc1cccc(C(=O)NC2CCN(C(=O)C3CC3)C2)c1` (centres undefined): the RP-LC retention time turned out to be 651 s.

`CCOc1ccc(C2c3[nH]c4ccccc4c3CCN2C(=O)Cc2cccs2)cc1` (centres undefined) yielded an RP-LC retention time of 1190 s. `Cc1ccc(C2Cn3nnc(-c4nc(-c5ccc(C(F)(F)F)cc5)no4)c3CO2)c(C)c1` (centres undefined) yielded an RP-LC retention time of 1300 s. `CCn1cc(-c2nc(CC(=O)Nc3ccc4c(c3)OCCO4)cs2)c2cccnc21` gave an RP-LC retention time of 925 s. In turn, `CCSc1ccccc1C(=O)NCC1CCN(C(=O)Oc2ccccc2)CC1` displayed an RP-LC retention time of 863 s.

Consider `Cc1noc(C)c1Cc1c(C(=O)N2CCC3(CCC3O)CC2)noc1C` (centres undefined), for which the RP-LC retention time amounted to 680 s. The compound `CC(=O)c1cccc(NC(=O)c2ncn(-c3ccccc3)n2)c1` came in with an RP-LC retention time of 731 s. Regarding `Cc1ccc(NS(=O)(=O)c2cc(-c3[nH]ncc3C(=O)N(C)C)oc2C)c(F)c1`, the RP-LC retention time came to 678 s.

For `CCC1CCCCN1Cc1nc(Cn2ccn3nc(-c4ccc(C)cc4)cc3c2=O)no1` (centres undefined), the RP-LC retention time is 726 s. In turn, `Cc1cc(C)c(S(=O)(=O)N2CCc3c(c(-c4nnc(-c5ccccc5F)o4)nn3C)C2)cc1C` showed an RP-LC retention time of 1070 s. For `CCc1ccc(-c2cc3c(=O)n(Cc4noc(CN5CCOCC5)n4)ccn3n2)cc1`, the RP-LC retention time was 813 s. Turning to `COCCN1C(=O)[C@H]2CN(Cc3ccc(F)c(F)c3)C[C@H]2C1=O`, the RP-LC retention time was found to be 623 s. Next, `CC1=C(c2cccc(Cl)c2)S(=O)(=O)N=C1N1CCCN(C(=O)NC(C)C)CC1`: 802 s.

`Cc1nnc(-c2nnc(NCCC(C)C)c3ccccc23)o1` showed an RP-LC retention time of 710 s. `O=C(Cn1ccc2sccc2c1=O)Nc1ccc(F)cc1` gave an RP-LC retention time of 728 s. Consider `Cc1nc2cc(-c3noc(/C=C/c4ccco4)n3)ccc2o1`, for which the RP-LC retention time came out at 1010 s. For `CC(C)NC(=O)C1CCN(C(=O)c2ncn3c2COC(c2ccccc2)C3)CC1` (centres undefined), the RP-LC retention time came to 686 s. For `COc1ccccc1N1CCN(C(=O)c2cn(-c3ccc(NC(C)=O)cn3)cn2)CC1`, the RP-LC retention time worked out at 646 s.

Turning to `O=S(=O)(Nc1ccccc1F)c1ccc(-c2nnc(C3CCC3)o2)o1`, the RP-LC retention time was 856 s. `O=S(=O)(Cc1ccccc1)N1CCC(Cc2nncn2-c2ccccc2)CC1` displayed an RP-LC retention time of 1080 s. Next, `CCn1nc(C(=O)Nc2nc3c(SC)cccc3s2)cc1C`: 994 s; `Cc1ccc(NC(=O)C2CCCN(S(=O)(=O)c3cn(C(C)C)cn3)C2)c(Br)c1` (centres undefined): 850 s; `COc1cc(=O)c(C(=O)NC(C)C)nn1-c1ccc(C)cc1`: 694 s. Next, `COc1ccc(-c2c(C(=O)O)nnn2-c2ccc3c(c2)OCO3)cc1`: 745 s.

`Cc1c(C(=O)NCC(c2cccs2)N2CCCC2)oc2ccc(Cl)cc12` (centres undefined): the RP-LC retention time was found to be 730 s. In the case of `COc1ccccc1NC(=O)Cn1c(C)nc2c(sc3nc(-c4ccccc4)ccc32)c1=O` it was 1090 s. Consider `Cc1ccn2cc(C(=O)NCc3ccc(F)cc3F)nc2c1`, for which the RP-LC retention time was 655 s. Next, `Cn1cc(CN2CCC(C(=O)NCCCN3CCOCC3)CC2)c2cc(Cl)ccc21`: 580 s; `COC(=O)c1ccc(CSc2nnc(C(C)C)c3cnn(-c4ccc(F)cc4)c23)o1`: 840 s; `CCn1ccc(C(=O)N2CCC(Cc3nc4cccnc4n3CC(C)C)C2)n1` (centres undefined): 619 s.

On to `O=C(Nc1ccc(C(=O)N2CCOCC2)c(N2CCCCCC2)c1)C1CC1`, for which the RP-LC retention time was found to be 743 s. As to `CCOC(=O)c1c(C)[nH]c(C(=O)N2CCC(CC(=O)NCc3cccnc3)CC2)c1C`, the RP-LC retention time was determined as 608 s. In the case of `CCN(Cc1c(C)nn(CC)c1C)C(=O)Cn1nc2n(c1=O)CCC(N)CC2` (centres undefined) it was 551 s.

In turn, `COc1ccc(-c2noc(-c3cn(C)c4ccc(C)cc4c3=O)n2)cc1OC` yielded an RP-LC retention time of 796 s. In the case of `O=C1CCCN1c1ccc(Cn2nc3c(-c4nc(-c5ccccc5)no4)cccn3c2=O)cc1` it was 839 s. For `Cc1scc2nc(C3CCC3)nc(N3CCC(C(=O)N4CCN(c5ccccn5)CC4)CC3)c12`, the RP-LC retention time amounted to 587 s.

`Cn1nc(-c2nnc(-c3ccc(F)cc3)o2)c2c1CCN(S(=O)(=O)Cc1ccccc1)C2` yielded an RP-LC retention time of 999 s.

For the compound `COCc1cc(=O)n(CC(=O)Nc2cc(C)ccc2C)c(N)n1`, the RP-LC retention time stood at 631 s. As to `COc1ccc(C2C(C(=O)O)CCC(=O)N2c2ccc(OC)cc2)cc1` (centres undefined), the RP-LC retention time was 656 s. In turn, `Cc1ccc(S(=O)(=O)N2CCC(N3CC(F)(F)C[C@H]3CN(C)C)CC2)c(C)c1` displayed an RP-LC retention time of 715 s. Take `CCc1ccc(NC(=O)N2CCC(OC3CCN(S(C)(=O)=O)CC3)CC2)cc1`: the RP-LC retention time was found to be 770 s.
